Measured values taken from the NIST ThermoML archive (doi:10.1016/j.jct.2010.03.002).

Experiment: xn = mol fraction of the nth substance listed
Conditions: 101 kPa, Liquid; for viscosity: Capillary tube (Ostwald / Ubbelohde) method; for mass density: Vibrating tube method

CCCCCCn1cc[n+](C)c1.[Br-] [3-hexyl-1-methyl-1H-imidazolium bromide] + O
Conditions | mass density, 293.15 K [kg/m3] | mass density, 303.15 K [kg/m3] | mass density, 313.15 K [kg/m3] | mass density, 323.15 K [kg/m3] | mass density, 333.15 K [kg/m3] | viscosity, 293.15 K [mPa·s] | viscosity, 303.15 K [mPa·s] | viscosity, 313.15 K [mPa·s] | viscosity, 323.15 K [mPa·s] | viscosity, 333.15 K [mPa·s]
x2 = 0 | 1227.4 | 1220.1 | 1213.3 | 1205.7 | 1198.6 | 6936 | 2239 | 851.65 | 512.14 | 350.69
x2 = 0.1225 | 1223.4 | 1216.1 | 1209.3 | 1201.8 | 1194.6 | 3519 | 1255 | 503.66 | 302.69 | 201.69
x2 = 0.2196 | 1220.4 | 1213.2 | 1206.4 | 1198.8 | 1191.5 | 1578 | 695.45 | 320.14 | 180.56 | 115.66
x2 = 0.2978 | 1217.9 | 1210.8 | 1204 | 1196.2 | 1189 | 776.62 | 395.49 | 194.1 | 117.64 | 77.41
x2 = 0.348 | 1216.3 | 1209 | 1202.2 | 1194.6 | 1187.4 | 507.8 | 265.62 | 143.5 | 89.65 | 57.52
x2 = 0.4166 | 1213.4 | 1206.2 | 1199.5 | 1192 | 1184.8 | 313.52 | 168.31 | 97.98 | 60.85 | 40.03
x2 = 0.504 | 1208.7 | 1201.6 | 1194.9 | 1187.5 | 1180.3 | 173.73 | 98.93 | 60.18 | 38.59 | 26.69
x2 = 0.5701 | 1203.9 | 1196.8 | 1190.1 | 1182.7 | 1175.8 | 111.42 | 65.77 | 41.24 | 27.69 | 19.36
x2 = 0.6405 | 1196.9 | 1189.9 | 1183.3 | 1176 | 1169 | 70.83 | 43.45 | 28.14 | 19.39 | 14.63
x2 = 0.7285 | 1184.3 | 1177.3 | 1170.7 | 1163.5 | 1156.5 | 36.4 | 22.54 | 15.13 | 10.75 | 7.929
x2 = 0.816 | 1163.7 | 1156.9 | 1150.1 | 1142.9 | 1136.3 | 18.13 | 12.1 | 8.492 | – | 4.762
x2 = 0.9048 | 1123.6 | 1117.3 | 1110.7 | 1104.4 | 1097.6 | 6.655 | 4.764 | 3.519 | 2.744 | 2.184
x2 = 0.9241 | 1109.4 | 1103.6 | 1097 | 1090.9 | 1084.2 | 4.951 | 3.619 | 2.764 | 2.165 | 1.733
x2 = 0.944 | 1091.2 | 1085.4 | 1079.5 | 1073.6 | 1067.2 | 3.48 | 2.622 | – | 1.6 | 1.301
x2 = 0.9613 | 1070.9 | 1065.7 | 1060.4 | 1054.7 | 1048.5 | 2.438 | 1.86 | 1.469 | – | 0.982
x2 = 0.9899 | 1022.6 | 1019.2 | 1015.1 | 1010.1 | 1004.2 | 1.342 | 1.047 | 0.846 | 0.695 | 0.588
